Data on 36 compounds can be found in US10414740B2, “Glutaminase inhibitors and method of use” (Agios Pharmaceuticals, Inc., priority 2012, dated 2019).

This assay has as its target T1, glutaminase (GAC) (Homo sapiens, UniProt O94925).
T1 sequence (O94925 55-598 isoform O94925-3 limits assumed): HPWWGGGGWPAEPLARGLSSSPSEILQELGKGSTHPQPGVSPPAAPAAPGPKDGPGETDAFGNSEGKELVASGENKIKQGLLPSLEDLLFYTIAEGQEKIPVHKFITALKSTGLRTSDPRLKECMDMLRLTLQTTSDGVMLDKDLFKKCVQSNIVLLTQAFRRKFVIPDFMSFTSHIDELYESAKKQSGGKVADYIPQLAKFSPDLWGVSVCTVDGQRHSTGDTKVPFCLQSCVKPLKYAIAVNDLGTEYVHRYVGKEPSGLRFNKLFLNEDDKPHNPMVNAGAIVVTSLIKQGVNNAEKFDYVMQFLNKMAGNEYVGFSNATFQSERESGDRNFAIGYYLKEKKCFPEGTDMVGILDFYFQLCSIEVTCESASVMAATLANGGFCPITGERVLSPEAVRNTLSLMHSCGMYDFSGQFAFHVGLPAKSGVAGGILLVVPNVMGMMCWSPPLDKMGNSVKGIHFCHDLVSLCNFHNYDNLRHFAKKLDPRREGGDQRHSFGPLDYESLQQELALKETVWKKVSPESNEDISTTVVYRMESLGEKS
Put plainly: glutaminase coupled endpoint assay (Example A). The assay is classed as biochemical. Conditions: inhibition of glutaminase; IC50 tested in an assay of Example A or Example B. A digest of the protocol: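 Coupled endpoint read-out: glutamate from GAC is converted by excess GDH, and diaphorase recycles NADH to NAD while reducing resazurin to fluorescent resorufin, so loss of signal means inhibition. Compound in DMSO is preincubated with enzyme for 60 min at room temperature before substrate is added. Hits are counterscreened against GDH/diaphorase alone.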
`O=C(Cc1ccc2c(c1)OCO2)Nc1nnc(CCCCc2nnc(NC(=O)Cc3ccc4c(c3)OCO4)s2)s1` [Compound 55, N,N′-(5,5′-(butane-1,4-diyl)bis(1,3,4-thiadiazole-5,2-diyl))bis(2-(benzo[d][1,3]dioxol-5-yl)acetamide)]: the IC50 was < 100 nM. The same measure for `O=C(Cc1ccccc1)Nc1nnc(CC[S+]([O-])CCC(=O)Nc2nnc(Cc3ccccc3)s2)s1` (stereo not drawn) [Compound 24]: 1000 to 10000 nM; for `CC(C)(Oc1ccc(Cl)cc1)C(=O)Nc1nnc(CCCCc2nnc(NC(=O)C(C)(C)Oc3ccc(Cl)cc3)s2)s1` [Compound 109]: 1000 to 10000 nM; for `CCOC(=O)CCCC(=O)Nc1nnc(CCCCc2nnc(NC(=O)CCCC(=O)OCC)s2)s1` [Compound 76, Diethyl 5,5′-(5,5′-(butane-1,4-diyl)bis(1,3,4-thiadiazole-5,2-diyl))bis(azanediyl)bis(5-oxopentanoate)]: 100 to 500 nM. The same measure for `Cn1c(=O)c2c(ncn2CC(=O)Nc2nnc(CCCCc3nnc(NC(=O)Cn4cnc5c4c(=O)n(C)c(=O)n5C)s3)s2)n(C)c1=O` [Compound 41]: 1000 to 10000 nM.

In the case of `COc1ccc(CC(=O)Nc2nnc(CCCCc3nnc(NC(=O)Cc4ccc(OC)c(OC)c4)s3)s2)cc1OC` [Compound 63, N,N′-(5,5′-(butane-1,4-diyl)bis(1,3,4-thiadiazole-5,2-diyl))bis(2-(3,4-dimethoxyphenyl)acetamide)], the IC50 was < 100 nM. The figure for `COc1ccc(CC(=O)Nc2nnc(CCS(=O)(=O)CCc3nnc(NC(=O)Cc4ccc(OC)cc4)s3)s2)cc1` [Compound 31, N,N′-(5,5′-(2,2′-sulfonylbis(ethane-2,1-diyl))bis(1,3,4-thiadiazole-5,2-diyl))bis(2-(4-methoxyphenyl)acetamide)] is < 100 nM; for `CC(C)(C)CC(=O)Nc1nnc(CCCCc2nnc(NC(=O)CC(C)(C)C)s2)s1` [Compound 96] it is 1000 to 10000 nM. Consider `O=C(Cc1ccccc1)Nc1cc(CCCCc2cc(NC(=O)Cc3ccccc3)on2)no1` [Compound 99], for which the IC50 lay in the range of 1000 to 10000 nM. The figure for `O=C(Cc1noc2ccccc12)Nc1nnc(CCCCc2nnc(NC(=O)Cc3noc4ccccc34)s2)s1` [Compound 60, N,N′-(5,5′-(butane-1,4-diyl)bis(1,3,4-thiadiazole-5,2-diyl))bis(2-(benzo[d]isoxazol-3-yl)acetamide)] is < 100 nM.

With `Cn1nc(CC(=O)Nc2nnc(CCCCc3nnc(NC(=O)Cc4nn(C)c5ccccc45)s3)s2)c2ccccc21` [Compound 122, N,N′-(5,5′-(butane-1,4-diyl)bis(1,3,4-thiadiazole-5,2-diyl))bis(2-(1-methyl-1H-indazol-3-yl)acetamide)], the IC50 was < 100 nM. The figure for `O=C(Cc1ccccn1)Nc1nnc(CCS(=O)(=O)CCc2nnc(NC(=O)Cc3ccccn3)s2)s1` [Compound 13, N,N′-(5,5′-(sulfonylbis(ethane-2,1-diyl))bis(1,3,4-thiadiazole-5,2-diyl))bis(2-(pyridin-2-yl)acetamide)] is < 100 nM; for `CC(C)OC(=O)Nc1nnc(CCS(=O)(=O)CCc2nnc(NC(=O)OC(C)C)s2)s1` [Compound 23, Diisopropyl (5,5′-(sulfonylbis(ethane-2,1-diyl))bis(1,3,4-thiadiazole-5,2-diyl))dicarbamate] it is 500 to 1000 nM. Consider `O=C(Cc1n[nH]c2ccccc12)Nc1nnc(CCCCc2nnc(NC(=O)Cc3n[nH]c4ccccc34)s2)s1` [Compound 126, N,N′-(5,5′-(butane-1,4-diyl)bis(1,3,4-thiadiazole-5,2-diyl))bis(2-(1H-indazol-3-yl)acetamide)], for which the 50% inhibitory concentration (IC50) is < 100 nM. The figure for `CC(=O)Nc1nnc(CCCCc2nnc(NC(=O)c3ccc4[nH]c(C)nc4c3)s2)s1` [Compound 128, N-(5-(4-(5-acetamido-1,3,4-thiadiazol-2-yl)butyl)-1,3,4-thiadiazol-2-yl)-2-methyl-1H-benzo[d]imidazole-5-carboxamide] is < 100 nM; for `O=C(CCOc1ccccc1)Nc1nnc(CCCCc2nnc(NC(=O)CCOc3ccccc3)s2)s1` [Compound 111, N,N′-(5,5′-(butane-1,4-diyl)bis(1,3,4-thiadiazole-5,2-diyl))bis(3-phenoxypropanamide)] it is 100 to 500 nM.

`CN(C(=O)Cc1ccccc1)c1nnc(CCCCc2nnc(N(C)C(=O)Cc3ccccc3)s2)s1` [Compound 97] had a half-inhibitory concentration (IC50) of 1000 to 10000 nM. The same measure for `CC(=O)Nc1nnc(CCCCc2nnc(NC(=O)Cc3ccccc3)s2)s1` [Compound 98]: 100 to 500 nM; for `COc1cccc(CCC(=O)Nc2nnc(CCCCc3nnc(NC(=O)CCc4cccc(OC)c4OC)s3)s2)c1OC` [Compound 106, N,N′-(5,5′-(butane-1,4-diyl)bis(1,3,4-thiadiazole-5,2-diyl))bis(3-(2,3-dimethoxyphenyl)propanamide)]: 100 to 500 nM.

`O=C(CC1CCCCO1)Nc1nnc(CCS(=O)(=O)CCc2nnc(NC(=O)CC3CCCCO3)s2)s1` (stereo not drawn) [Compound 33, N,N′-(5,5′-(2,2′-sulfonylbis(ethane-2,1-diyl))bis(1,3,4-thiadiazole-5,2-diyl))bis(2-(tetrahydro-2H-pyran-2-yl)acetamide)] came in with a half-inhibitory concentration (IC50) of 100 to 500 nM. Take `CC(C)COC(=O)Nc1nnc(CCS(=O)(=O)CCc2nnc(NC(=O)OCC(C)C)s2)s1` [Compound 22, Diisobutyl (5,5′-(sulfonylbis(ethane-2,1-diyl))bis(1,3,4-thiadiazole-5,2-diyl))dicarbamate]: the IC50 is 100 to 500 nM. The figure for `CC(C)CC(=O)Nc1nnc(CCCCc2nnc(NC(=O)CC(C)C)s2)s1` [Compound 115, N,N′-(5,5′-(butane-1,4-diyl)bis(1,3,4-thiadiazole-5,2-diyl))bis(3-methylbutanamide)] is 500 to 1000 nM; for `COc1ccccc1OCC(=O)Nc1nnc(CCCCc2nnc(NC(=O)COc3ccccc3OC)s2)s1` [Compound 74] it is 100 to 500 nM; for `O=C(Cc1ccccn1)Nc1nnc(CCCCCc2nnc(NC(=O)Cc3ccccn3)s2)s1` [Compound 11, N,N′-(5,5′-(pentane-1,5-diyl)bis(1,3,4-thiadiazole-5,2-diyl))bis(2-(pyridin-2-yl)acetamide)] it is 100 to 500 nM. The same measure for `CC(=O)NCCCC(=O)Nc1nnc(CCCCc2nnc(NC(=O)CCCNC(C)=O)s2)s1` [Compound 70]: 1000 to 10000 nM. As to `Cc1nc2ccc(C(=O)Nc3nnc(CCSCCc4nnc(NC(=O)c5ccc6nc(C)[nH]c6c5)s4)s3)cc2[nH]1` [Compound 34, N,N′-(5,5′-(2,2′-thiobis(ethane-2,1-diyl))bis(1,3,4-thiadiazole-5,2-diyl))bis(2-methyl-1H-benzo[d]imidazole-6-carboxamide)], the IC50 is < 100 nM. `O=C(Cc1ccccn1)Nc1nnc(CC[S+]([O-])CCc2nnc(NC(=O)Cc3ccccn3)s2)s1` [Compound 17, N,N′-(5,5′-(sulfinylbis(ethane-2,1-diyl))bis(1,3,4-thiadiazole-5,2-diyl))bis(2-(pyridin-2-yl)acetamide)] had a 50% inhibitory concentration (IC50) of 100 to 500 nM. The same measure for `O=C(Nc1nnc(CCCCc2nnc(NC(=O)c3cccc4ccccc34)s2)s1)c1cccc2ccccc12` [Compound 85, N,N′-(5,5′-(butane-1,4-diyl)bis(1,3,4-thiadiazole-5,2-diyl))di-1-naphthamide]: 100 to 500 nM; for `COc1ccc(CC(=O)Nc2nnc(CCCCc3nnc(NC(C)=O)s3)s2)cc1OC` [Compound 118, N-(5-(4-(5-acetamido-1,3,4-thiadiazol-2-yl)butyl)-1,3,4-thiadiazol-2-yl)-2-(3,4-dimethoxyphenyl)acetamide]: 100 to 500 nM; for `O=C(CCCC(=O)c1ccccc1)Nc1nnc(CCCCc2nnc(NC(=O)CCCC(=O)c3ccccc3)s2)s1` [Compound 40, N,N′-(5,5′-(butane-1,4-diyl)bis(1,3,4-thiadiazole-5,2-diyl))bis(5-oxo-5-phenylpentanamide)]: < 100 nM.

`Cc1ccc(C)c(OCC(=O)Nc2nnc(CCCCc3nnc(NC(=O)COc4cc(C)ccc4C)s3)s2)c1` [Compound 67] displayed an IC50 of 1000 to 10000 nM. The same measure for `O=C(CC1NC(=O)NC1=O)Nc1nnc(CCCCc2nnc(NC(=O)CC3NC(=O)NC3=O)s2)s1` (stereo not drawn) [Compound 89, N,N′-(5,5′-(butane-1,4-diyl)bis(1,3,4-thiadiazole-5,2-diyl))bis(2-(2,5-dioxoimidazolidin-4-yl)acetamide)]: 100 to 500 nM. As to `O=C(Cc1ccccn1)Nc1nnc(CCCCc2nnc(NC(=O)Cc3ccccn3)s2)s1` [Compound 47, N,N′-(5,5′-(butane-1,4-diyl)bis(1,3,4-thiadiazole-5,2-diyl))bis(2-(pyridin-2-yl)acetamide)], the half-maximal inhibitory concentration (IC50) is < 100 nM. The figure for `O=C(CCc1nnc(NC(=O)Cc2ccccn2)s1)CCc1nnc(NC(=O)Cc2ccccn2)s1` [Compound 73] is 500 to 1000 nM; for `O=C(Nc1nnc(CCSCCc2nnc(NC(=O)Oc3ccccc3)s2)s1)Oc1ccccc1` [Compound 1, Diphenyl (5,5′-(thiobis(ethane-2,1-diyl))bis(1,3,4-thiadiazole-5,2-diyl))dicarbamate] it is 1000 to 10000 nM. The figure for `O=C(Cc1ccccn1)Nc1nnc(CCSCc2nnc(NC(=O)Cc3ccccn3)s2)s1` [Compound 57] is < 100 nM.

By IC50 is commonly meant the concentration at which inhibition is half-maximal.
